From patent US20140196172A1, “Organelle Targeting Nanocarriers” (Her Majesty the Queen in Right of Canada, as Repre sented …, priority 2011, published 2014)

Columns and labels:
[1] = tested on: proplastids of triticale microspores; assay: qRT-PCR of gfp mRNA, microspores transfected with pWCaadA16GFP; assay type: cell-based; conditions: gfp reporter construct
Excerpt: (§1) FIG. 18 is a plot showing the level of expression (fold increase, average of 4 replicates) of GFP in triticale microspores transfected with the pWCaadA16GFP plasmid in the presence of cTP1 (SEQ ID NO: 6), cTP2 (SEQ ID NO: 7), cTP3 (SEQ ID NO: 8), cTP4 (SEQ ID NO: 9) or cTP5 (SEQ ID NO: 10) compared to the level of expression (fold increase) of the internal control elongation factor 1a (EF1a), as measured by quantitative real time PCR of mRNA levels;
(§2) Wheat chloroplast aadA16GFP reporter plasmid (pWCaadA16GFP, FIG. 12) is a 4212 base pair wheat specific plastid transformation vector, which targets insertions into the tml-tmA inverted repeat regions of the Triticum aestivum plastid genome at nucleotides 92850-93727 and 93794-94671 (GenBank accession No. AB042240.3). A multiple cloning site is introduced following the tml target insertion sequence. The selection marker gene is an organelle codon specific aad-gfp fusion gene, which facilitates a dual selection method of spectinomycin resistance through an aadA derivative and visual detection by GFP fluorescence (GenBank accession No. ABX39486; Khan and Maliga, Nat. Biotechnol. (1999 September) 17(9): 910-5). The selection marker gene is driven by the Triticum aestivum plastid genome promoter (psbA) at nucleotides 1282-1153 (GenBank accession No. AB042240.3). The aad-gfp fusion gene is terminated with the rice psbA terminator sequence derived from chloroplast transformation vector pVSR326 nucleotides 4014-4387 (GenBank accession No. AF527485.1).
The dsDNA construct (pWMaadA16GFP for mitochondrial expression or pWCaadA16GFP for expression in chloroplasts) is combined with the mTP (for mitochondrial expression) or cTP (for expression in chloroplasts) in the amounts used in the protoplast transformation experiments described above in a final volume of 100 μl of NBP-99 solution. The mixture is incubated for 10 minutes at room temperature, then incubated with isolated triticale microspores (500 μl, 10^6 microspores/ml, prepared as described in Example 2) for 1 h in the dark at room temperature. NBP-99 solution (500 μl) is added and the mixture is incubated in the dark for 24 h. The cells are imaged using confocal microscopy, as described in Example 2, using MitoTracker® Orange staining to visualize mitochondria.
Microspores are disrupted using a cleaned ceramic bead and aggressive shaking as the tissue is thawing. RLT buffer/B-Me (450 μl) is added and the sample is vortexed. The sample is heated at 55° C. for 1 minute and vortexed again. RNA is extracted using an RNeasy™ Plant Mini Kit (Qiagen), incorporating on-column DNase I digestion into the protocol. The final elution volume is 40 μl. RNA is assessed using both agarose gel […] (to ensure RNA is intact) and spectrophotometry (for quantification).
(§3) cDNA is generated using a First Strand Synthesis kit (Invitrogen). RNA (1 μg) is added to each sample and the manufacturer's protocol for synthesis followed, with the exception that the volume of the reaction mixture is increased from 20 μl to 30 μl. A negRT sample containing all reagents but no RNA is included in the cDNA synthesis as a negative control.
Standard curves are generated for both elongation factor 1a (EF1a) (internal control) and green fluorescent protein (GFP) (test) genes. […]
(§4) Real time PCR reactions are performed using QuantiTect™ SYBR™ Green PCR Master Mix (Qiagen) in a 20 μl reaction volume. […]

[2] = tested on: chloroplasts of triticale protoplasts; assay: qRT-PCR of gfp mRNA, protoplasts transfected with pWCaadA16GFP; assay type: cell-based; conditions: gfp reporter construct
Excerpt: as §1, with “20” for “18”, “protoplasts” for “microspores”, “levels.” for “levels;”
as §2
The dsDNA construct (pWMaadA16GFP for mitochondrial expression or pWCaadA16GFP for expression in chloroplasts) is combined with the mTP (for mitochondrial expression) or cTP (for expression in chloroplasts) in a final volume of 100 μl of CPW solution. For experiments using mTP1 (SEQ ID NO: 1), mTP2 (SEQ ID NO: 2), mTP3 (SEQ ID NO: 3), or mTP5 (SEQ ID NO: 5), peptides (scaled up from 100 ng, at four times the concentration needed to cause a DNA shift in the gel mobility shift assay (Table 7)) are combined with the pWMaadA16GFP construct (5 μg). For experiments using the remaining oTPs, peptides (30 μg) are combined with the appropriate dsDNA construct (1.5 μg). The mixture is incubated for 10 minutes at room temperature, then incubated with isolated triticale mesophyll protoplasts (500 μl, 10^6 protoplasts/ml, prepared as described in Example 2) for 1 h in the dark at room temperature. CPW solution (500 μl) is added and the mixture is incubated in the dark for 24 h. The cells are imaged using confocal microscopy, as described in Example 2, using MitoTracker® Orange staining to visualize mitochondria and chlorophyll autofluorescence to visualize chloroplasts.
as §3
Standard curves are generated for both elongation factor 1a (EF1a) (internal control) and green fluorescent protein (GFP) (test) genes. The EF1a curve is generated by pooling 6 μl of each cDNA sample (excluding the negRT control), then carrying out a serial dilution of 0.5 for 5 more dilutions. […]
as §4

## MKNPPSSFASGFGIR (listed as Oryza sativa) [cTP3]
[1]
  GFP expression by proplastids confirmed by qRT-PCR: GFP is expressed
[2]
  GFP expression by chloroplasts confirmed by qRT-PCR: GFP is expressed
